Measured values published in patent US7297353B2, “Use of anemonin for treating aseptic inflammations” (priority 2000, dated 2007).

What was measured:
pain induced by formalin = experiment: Analgesic test with formalin; type: in vivo, mice; conditions: 25 mg/kg intraperitoneal
Procedure: Dolantin was intraperitoneal injected and other groups received test medication on left and right hind feet. 15 minutes after administration, 0.03 ml of 2.5% formalin was given to each mouse by subcutaneous injection on right hind foot and then the test medication was applied again. Then, the number of times of each mouse's licking its right hind foot in 15 minutes was counted.

[1] = tested on: pain induced by hot plate; experiment: Analgesic test with hot plate; type: in vivo, mice; conditions: 25 mg/kg intraperitoneal
Procedure: This experiment included 4 groups of female mice, totaling 64 and each weighed 18-22 g, selected for normal pain reaction with 55° C. hot plate: high concentration group, low concentration group, dolantin group and control group. The route of administration and dosage are the same as described in the test with formalin. Dolantin was intraperitoneal injected and other groups received test medication on left and right hind feet and abdomen. 30, 60 and 90 minutes after the administration, the mice were put on a 55° C. hot plate and the latent time of each mouse for pain reaction was determined.

[2] = tested on: dimethylbenene-induced ear swelling; experiment: Acute ear edema of mice induced by dimethylbenene; type: in vivo; conditions: positive control applied on ear; two hours after dimethylbenene
Procedure: The mice were randomly divided into 5 groups. Thirty minutes and sixty minutes after applying dimethylbenene (50 μl) to the anterior and posterior surfaces of the right ear, 25% ethanol (50 μl), the linimene solutions of anemonin (0.05, 0.5, 5 mg/ml, 50 μl) and FAA (a positive control) were applied on the same ears of mice respectively. The left ear was considered as control. Two hours after dimethylbenene application, mice were killed and both ears were removed. Circular sections were taken, using a 9 mm-diameter borer, and weighed. The increase in weight caused by the irritant was measured by subtracting the weight of the untreated left ear section from that of the treated right ear section.

[3] = tested on: carrageenan-induced paw edema; experiment: Acute hind paw edema of rats induced by carrageenan; type: in vivo; conditions: for Paw edema: FAA group
Procedure: The animals were injected subcutaneously with carrageenan (10 μl of 1% solution in saline) into the right paw. Anti-inflammatory properties of external anemonin were studied by applying with various liniment solution of anemonin (0.125, 0.5, 2 mg/ml, 0.5 ml) for 2 h immediately after administration of carrageenan. The rats of control group were treated with the same volume of solvent (25% ethanol). The paw volumes of rats were measured at 0, 2 h, 3 h, 4 h, 5 h, 6 h after injection of carrageenan. The paw edema was represented by subtracting the volume of the untreated same paw from that of the treated paw.

[4] = tested on: swelling of rat's hind foot; experiment: Anti-swelling test on rat's hind foot (carrageenan); type: in vivo, rats; conditions: 0.025% ointment
Procedure: This experiment included 4 groups of rats totaling 40 and each weighed 200-250 g: high concentration group, low concentration group (12.5 mg/25 ml, 6.25 mg/25 ml respectively), fluocinolone acetonide group, control group (the same volume of 25% ethanol). Fluocinolone acetonide was given using a 0.025% ointment, and other groups received corresponding medicament on the left and right hind feet prior to subcutaneous injection of 0.1 ml of 1% carrageenan on the metatarsus of each rat's right hind foot. Immediately after the administration of carrageenan, corresponding medicament was applied on the right hind foot. The metatarsal perimeters of right and left hind foot of each rat were measured 2, 3, 4, and 5 hours after the final administration. The difference between the metatarsal perimeters of the two feet of each rat is taken as a measure of swelling. Corresponding medicament was applied again on rat's right hind foot after each measurement.

skin = experiment: Skin allergic test; conditions: guinea pigs

SMILES: CCOC(=O)C1(c2ccccc2)CCN(C)CC1 [Dolantin]
- Rate of inhibition(%) (pain induced by formalin): 100%
- Times of licking hind feet (pain induced by formalin; 15 minutes): 0.00 ± 0.00
- Increase of pain threshold (%) ([1]; 30 min after administration): 66%
- Latent time for pain reaction ([1]; 30 min after administration): 49.86 ± 5.23 s
- Increase of pain threshold (%) ([1]; 60 min after administration): 80%
- Latent time for pain reaction ([1]; 60 min after administration): 54.29 ± 9.27 s
- Increase of pain threshold (%) ([1]; 90 min after administration): 94%
- Latent time for pain reaction ([1]; 90 min after administration): 58.31 ± 11.23 s

SMILES: CC(=O)OCC(=O)[C@@]12OC(C)(C)O[C@@H]1C[C@H]1[C@@H]3C[C@H](F)C4=CC(=O)C=C[C@]4(C)[C@@]3(F)[C@@H](O)C[C@@]12C [FAA, Fluocinoloni Acetonidi Acetas, reference compound]
- Ear swellin [2]: 10 ± 1.8 mg
- Paw edema ([3]; 2 h): 0.13 ± 0.05 mL
- Paw edema ([3]; 3 h): 0.09 ± 0.07 mL
- Paw edema ([3]; 4 h): 0.11 ± 0.08 mL
- Paw edema ([3]; 5 h): 0.09 ± 0.07 mL
- Paw edema ([3]; 6 h): 0.09 ± 0.11 mL
- edema formation ([3]; steroidal anti-inflammatory drug, positive control): significantly inhibited

SMILES: CC1(C)O[C@@H]2C[C@H]3[C@@H]4C[C@H](F)C5=CC(=O)C=C[C@]5(C)[C@@]4(F)[C@@H](O)C[C@]3(C)[C@]2(C(=O)CO)O1 [Fluocinolone acetonide]
- Degree of tumefaction (cm) ([4]; 2 hours): 0.91 ± 0.20 cm
- Degree of tumefaction (cm) ([4]; 3 hours): 0.92 ± 0.13 cm
- Degree of tumefaction (cm) ([4]; 4 hours): 0.90 ± 0.18 cm
- Degree of tumefaction (cm) ([4]; 5 hours): 0.92 cm

SMILES: O=[N+]([O-])c1ccc(Cl)c([N+](=O)[O-])c1 [positive control, 2,4-dinitrochlorobenzene]
- allergenic intensity (skin): extreme
- allergenic rate (skin): 100%
